According to PMC3221503, “Study on Cytochrome P-450 Dependent Retinoic Acid Metabolism and its Inhibitors as Potential Agents for Cancer Therapy” (Scientia Pharmaceutica, 2011):
Like-named read-outs stand apart in the source and are kept apart here.

Assays:
[1] = system: cytochrome P-450 dependent retinoic acid metabolism in male rat hepatic microsomes; experiment: RA metabolism assay: in vitro inhibition of retinoic acid metabolism by P-450 inhibitors; conditions: inhibitor 100 μM, RA 3 μM, male rat hepatic microsomes 0.12 mg/ml, 37°C, 15 min, mean of three determinations, (-) denotes stimulation of RA metabolism
Method: (§1) Controls (10 μl, DMSO) were also carried with each experiment.
(§2) The assay followed a previously described one [17]: The column was a 10 μm C18 μ Bondapak (3.9× 300mm, Millipore) and the mobile phase was acetonitrile: water: formic acid (75:25:0.05v/v) containing 10 mM ammonium acetate. Flow rate was 1.2 ml.Min^−1. Eluted ^3H compounds were detected on line by a model 970 detector (Reeve) using Hisafe III scintillation fluid. The retention time of ^3H-RA was 10 min and oxidative metabolites of ^3H-RA were detected, eluting samples over 3 to 7 min. Metabolism was determined from the % conversion of RA into its total metabolites based on AUC values.
(§3) Three separate experiments (each with triplicate tubes) were carried out.
(§4) The IC50 for ketoconazole and liarozole were determined for comparative purposes.
(§5) The IC50 was calculated from a plot of percentage inhibition versus log inhibitor concentration using Cricket Graph 1.3.

[2] = system: cytochrome P-450 dependent retinoic acid metabolism; experiment: as above; conditions: male, rat
Method: as §1, §2, §3, §4, §5

[3] = system: cytochrome P-450 dependent retinoic acid metabolism in male rat hepatic microsomes; conditions: pH 7.4
Method: as §1, §2, §3, §4, §5

mouse embryo = system: mouse embryo; parameters: method as in PMID 1965892; conditions: cited from earlier work
[4] = parameters: method as in PMID 1328295; conditions: cleared from the plasma; cited from earlier work
[5] = rat liver microsomes, pH 7.4, probe 3H-retinoic acid (RA), 3 μM

For CC(=O)C[C@H](c1ccccc1)c1c(O)c2ccccc2oc1=O [R-Warfarin], which “% Inhibition of retinoic acid metabolism” value [1] is on record?
The value was 3.0%.

Which inhibition at 15 min, 100 μM [2, 5] does the source give for c1ccc2[nH]c(-c3cscn3)nc2c1 [Thiabendazole] here?
Its inhibition at 15 min, 100 μM is -4.31%.

For C[C@@H]1[C@H](O)[C@@H](C)/C=C/C=C/C=C/C=C/C=C/C=C/C=C/[C@H](O[C@@H]2O[C@H](C)[C@@H](O)[C@H](N)[C@@H]2O)C[C@@H]2O[C@](O)(C[C@@H](O)C[C@@H](O)[C@H](O)CC[C@@H](O)C[C@@H](O)CC(=O)O[C@H]1C)C[C@H](O)[C@H]2C(=O)O [Amphotericin], which inhibition at 15 min, 100 μM [2, 5] is on record?
The inhibition at 15 min, 100 μM was 6.24%.

Which inhibition at 15 min, 100 μM [2, 5] does the source give for CC(=O)Oc1ccccc1C(=O)O [Aspirin] here?
Its inhibition at 15 min, 100 μM is 5%.

For NCCc1c[nH]cn1 [Histamine], which inhibition at 15 min, 100 μM [2, 5] is on record?
The inhibition at 15 min, 100 μM was 0%.

For CCC1(c2ccc([N+](=O)[O-])cc2)CCC(=O)NC1=O (stereo not drawn) [Nitroglutethimide], which “% Inhibition of retinoic acid metabolism” value [1] is on record?
The value was −1.4%.

For CCC1(c2ccc(N)cc2)CCC(=O)NC1=O (stereo not drawn) [Aminoglutethimide], which inhibition at 15 min, 100 μM [2, 5] is on record?
The inhibition at 15 min, 100 μM was 30.8%.

For O=C(Cn1ccnc1)c1ccc2ccccc2c1 [Nafimidone], which inhibition at 15 min, 100 μM [2, 5] is on record?
Its inhibition at 15 min, 100 μM is 12%.

For CCC1(c2ccccc2)C(=O)NC(=O)NC1=O [Phenobarbitone], which “% Inhibition of retinoic acid metabolism” value [3] is on record?
Its value is 0.0%.

With Cc1nc2cc(-c3ccccc3)ccc2o1 [2-Methyl-5-phenyl-1,3-benzoxazole] as the compound, how does the inhibition at 15 min, 100 μM [2, 5] read?
Its inhibition at 15 min, 100 μM is 18%.

With Clc1cccc(C(c2ccc3[nH]cnc3c2)n2ccnc2)c1 (stereo not drawn) [Liarozole] as the compound, how does the IC50 at 15 min [2, 5] read?
The IC50 at 15 min was 4.2 ± 0.1 µM.

And the inhibition at 15 min, 100 μM [2, 5]?
The inhibition at 15 min, 100 μM was 89%.

What does the source list for CCCC(C(=O)OCCN(CC)CC)(c1ccccc1)c1ccccc1 [Proadifen]?
IC50 at 15 min [2, 5]: 1 ± 0.14 µM; % Inhibition of retinoic acid metabolism [1]: 86.0%; % Inhibition of retinoic acid metabolism ([1]; listed as proadifen): > 50%

Which IC50 at 15 min [2, 5] does the source give for CCC(C)n1ncn(-c2ccc(N3CCN(c4ccc(OCC5COC(Cn6cncn6)(c6ccc(Cl)cc6Cl)O5)cc4)CC3)cc2)c1=O (stereo not drawn) [Itraconazole] here?
Its IC50 at 15 min is 17.4 ± 1 µM.

And the inhibition at 15 min, 100 μM [2, 5]?
Its inhibition at 15 min, 100 μM is greater than 50%.

What about the “% Inhibition of retinoic acid metabolism” value [1] of the same compound?
The value was 68.7%.

With O=C(O)/C=C\C(=O)O.S=C(NC1CCCCC1)N1CCC(c2cnc[nH]2)CC1 [Thiopermide maleate] as the compound, how does the “% Inhibition of retinoic acid metabolism” value [1] read?
The value was 3.4%.

Which “% Inhibition of retinoic acid metabolism” value [1] does the source give for c1ccc(Cn2ccnc2)cc1 [1-Benzylimidazole] here?
Its value is 7.6%.

Which inhibition at 15 min, 100 μM [2, 5] does the source give for Clc1cccc(-c2cnco2)c1 [5-(3-Chlorophenyl)-1,3-oxazole] here?
The inhibition at 15 min, 100 μM was 8.6%.

Which inhibition at 15 min, 100 μM [2, 5] does the source give for O=c1ccc2ccccc2o1 [Coumarin] here?
The inhibition at 15 min, 100 μM was 37%.

With CC(=O)C[C@@H](c1ccccc1)c1c(O)c2ccccc2oc1=O [S-Warfarin] as the compound, how does the “% Inhibition of retinoic acid metabolism” value [1] read?
The value was 6.5%.

With COc1ccc2c(c1)c(CC(=O)O)c(C)n2C(=O)c1ccc(Cl)cc1 [Indomethacin] as the compound, how does the inhibition at 15 min, 100 μM [2, 5] read?
Its inhibition at 15 min, 100 μM is 0%.

Which inhibition at 15 min, 100 μM [2, 5] does the source give for COC1=CC(=O)C[C@@H](C)[C@]12Oc1c(Cl)c(OC)cc(OC)c1C2=O [Griseofulvin] here?
Its inhibition at 15 min, 100 μM is 0%.

For Cc1ccc(-c2ncns2)cc1 [5-(4-Methylphenyl)-1,2,4-thiadiazole], which inhibition at 15 min, 100 μM [2, 5] is on record?
Its inhibition at 15 min, 100 μM is 4.8%.

With CC1=C(/C=C/C(C)=C/C=C/C(C)=C/C(=O)O)C(C)(C)CCC1 [RA, All-trans-retinoic acid] as the compound, how does the “developmental / teratogenic effect” value (mouse embryo; dose of 1 mg/Kg RA, mice) read?
The value was “no teratogenic effects”.

What about the “increase in the level of RA in mouse embryo limb buds” value (mouse embryo; dose of 10 mg/Kg body weight of RA) of the same compound?
The value was “approximately 50 fold”.

And the “developmental / teratogenic effect” value (mouse embryo; dose of 10 mg/Kg body weight of RA, mouse)?
Its value is “developmental abnormalities”.

And the “plasma t ½” value [4]?
The value was less than 1 h.

Which inhibition at 15 min, 100 μM [2, 5] does the source give for c1ccc(-c2ccc(C(c3ccccc3)n3ccnc3)cc2)cc1 (stereo not drawn) [Bifonazole] here?
Its inhibition at 15 min, 100 μM is 47.5%.

What does the source list for c1ccc(CCNCc2ccccc2)cc1 [N-Benzyl-2-phenylethanamine]?
IC50 at 15 min ([2]; pH 7.4): 17.1 ± 3.2 µM; % Inhibition of retinoic acid metabolism [1]: 85.0%; % Inhibition of retinoic acid metabolism ([1]; listed as N-benzyl-2-phenylethanamine): > 50%

Which “% Inhibition of retinoic acid metabolism” value [1] does the source give for C[C@@H]1[C@H](O)[C@@H](C)/C=C/C=C/CC/C=C/C=C/C=C/C=C/C(O[C@H]2O[C@H](C)[C@@H](O)[C@H](N)[C@@H]2O)CC2O[C@](O)(CC(O)C(O)CCC(O)CC(O)CC(O)CC(=O)O[C@H]1C)CC(O)C2C(=O)O (stereo partly drawn) [Nystatin] here?
The value was 5.44%.

For Clc1ccc(COC(Cn2ccnc2)c2ccc(Cl)cc2Cl)c(Cl)c1 (stereo not drawn) [Miconazole], which inhibition at 15 min, 100 μM [2, 5] is on record?
The inhibition at 15 min, 100 μM was 13.5%.

With Clc1ccccc1C(c1ccccc1)(c1ccccc1)n1ccnc1 [Clotrimazole] as the compound, how does the inhibition at 15 min, 100 μM [2, 5] read?
The inhibition at 15 min, 100 μM was 34.4%.

For O=c1cc(O)c2ccccc2o1 [4-Hydroxycoumarin], which “% Inhibition of retinoic acid metabolism” value [1] is on record?
The value was 38.50%.

For CN(C)CCCN1c2ccccc2Sc2ccc(Cl)cc21 [Chlorpromazine], which IC50 at 15 min [2, 5] is on record?
The IC50 at 15 min was 16.9 ± 1.7 µM.

What about the “% Inhibition of retinoic acid metabolism” value [1] of the same compound?
Its value is 85.0%.

And the “% Inhibition of retinoic acid metabolism” value ([1]; listed as chlorpromazine)?
Its value is greater than 50%.

For CN/C(=N/CCSCc1nc[nH]c1C)NC#N [Cimetidine], which inhibition at 15 min, 100 μM [2, 5] is on record?
The inhibition at 15 min, 100 μM was 1%.

What does the source list for CC(=O)N1CCN(c2ccc(OCC3COC(Cn4ccnc4)(c4ccc(Cl)cc4Cl)O3)cc2)CC1 (stereo not drawn) [Ketoconazole]?
IC50 at 15 min [2, 5]: 13.5 ± 1.3 µM; inhibition at 15 min, 100 μM [2, 5]: 87.5%

Which inhibition at 15 min, 100 μM [2, 5] does the source give for CN1C(=O)CC(c2ccccc2)C1=O (stereo not drawn) [Phensuximide] here?
The inhibition at 15 min, 100 μM was 3.5%.

With COc1ccc2ccc(=O)oc2c1 [7-Methoxycoumarin] as the compound, how does the inhibition at 15 min, 100 μM [2, 5] read?
The inhibition at 15 min, 100 μM was 11.7%.

With Clc1ccc(COC(Cn2ccnc2)c2ccc(Cl)cc2Cl)cc1 (stereo not drawn) [Econazole] as the compound, how does the inhibition at 15 min, 100 μM [2, 5] read?
Its inhibition at 15 min, 100 μM is 14%.

With C[C@@H](Cc1ccccc1)N(C)Cc1ccccc1 [Benzphetamine] as the compound, how does the “% Inhibition of retinoic acid metabolism” value [3] read?
The value was 46.0%.

For O=C(O)c1cc(-c2ccc(F)cc2F)ccc1O [Diflunisal], which inhibition at 15 min, 100 μM [2, 5] is on record?
The inhibition at 15 min, 100 μM was 2%.

For Brc1ccc(-c2csnn2)cc1 [4-(4-Bromophenyl)-1,2,3-thiadiazole], which inhibition at 15 min, 100 μM [2, 5] is on record?
Its inhibition at 15 min, 100 μM is 11.6%.

Which inhibition at 15 min, 100 μM [2, 5] does the source give for c1csc(-c2nnco2)c1 [2-(Thiophen-2-yl)-1,3,4-oxadiazole] here?
The inhibition at 15 min, 100 μM was 0%.
